Reference: ChEMBL document CHEMBL3352057, “Novel fluorinated pyrrolo[1,2-a]pyrazine-2,6-dione derivatives: synthesis and anticonvulsant evaluation in animal models of epilepsy” (Bioorg Med Chem, 2014)

Legend:
[1] = Protective index, ratio of TD50 for neurotoxicity in ip dosed albino CF1 mouse to ED50 for anticonvulsant activity in ip dosed 6 Hz current-induced seizure albino CF1 mouse model; type: toxicity, organism-based; settings: in vivo, read-out: Ratio TD50/ED50
Mus musculus [2] = assay: Anticonvulsant activity in ip dosed albino CF1 mouse assessed as protection against 6 Hz current-induced seizures measured as time to peak effect; type: functional
Mus musculus [3] = assay: Anticonvulsant activity in ip dosed albino CF1 mouse assessed as protection against 6 Hz current-induced seizures; type: functional
Mus musculus [4] = assay: Neurotoxicity in ip dosed 6 Hz current-induced seizure albino CF1 mouse model; type: toxicity, organism-based; settings: in vivo
Mus musculus [5] = assay: Anticonvulsant activity in ip dosed corneal kindled albino CF1 mouse seizure model assessed as time to peak effect; type: functional
Mus musculus [6] = assay: Anticonvulsant activity in ip dosed corneal kindled albino CF1 mouse seizure model; type: functional
Mus musculus [7] = assay: Anticonvulsant activity in ip dosed albino CF1 mouse assessed as protection against maximal electroshock-induced seizures; type: functional
Mus musculus [8] = assay: Anticonvulsant activity in ip dosed albino CF1 mouse assessed as protection against subcutaneous metrazol-induced seizures; type: functional
Mus musculus [9] = assay: Anticonvulsant activity in ip dosed albino CF1 mouse assessed as protection against maximal electroshock-induced seizures measured as time to peak effect; type: functional
[10] = Neurotoxicity in ip dosed albino CF1 mouse; type: toxicity, organism-based; settings: in vivo
Rattus norvegicus [11] = assay: Anticonvulsant activity in ip dosed Sprague-Dawley rat assessed as protection against maximal electroshock-induced seizures; type: functional
[12] = Protective index, ratio of TD50 for neurotoxicity in ip dosed Sprague-Dawley rat to ED50 for anticonvulsant activity in ip dosed MES Sprague-Dawley rat model; type: toxicity, organism-based; settings: in vivo, read-out: Ratio TD50/ED50
Rattus norvegicus [13] = assay: Anticonvulsant activity in ip dosed Sprague-Dawley rat assessed as protection against subcutaneous metrazol-induced seizures; type: functional
Rattus norvegicus [14] = assay: Anticonvulsant activity in ip dosed Sprague-Dawley rat assessed as protection against subcutaneous metrazol-induced seizures measured at 0.25 hr post dose; type: functional
[15] = Neurotoxicity in ip dosed Sprague-Dawley rat measured at 0.25 hr post dose; type: toxicity, organism-based; settings: in vivo
Rattus norvegicus [16] = assay: Anticonvulsant activity in ip dosed Sprague-Dawley rat assessed as protection against maximal electroshock-induced seizures measured as time to peak effect; type: functional

Row | Structure (SMILES) | selectivity ratio [1] | Time (Mus musculus [2]) | ED50 (Mus musculus [3]) | ED50 (Mus musculus [4]) | Time (Mus musculus [5]) | ED50 (Mus musculus [6]) | ED50 (Mus musculus [7]) | ED50 (Mus musculus [8]) | Time (Mus musculus [9]) | TD50 [10] | ED50 (Rattus norvegicus [11]) | selectivity ratio [12] | ED50 (Rattus norvegicus [13]) | ED50 (Rattus norvegicus [14]) | TD50 at 0.25 h [15] | Time (Rattus norvegicus [16])
1 | CC[C@@H](C(N)=O)N1CCCC1=O | > 25.8 | 1 h | 114 µmol/kg | 252 µmol/kg | 0.5 h | 94 µmol/kg |  |  |  |  |  |  |  |  |  | 
2 | CCC1(c2ccccc2)C(=O)NC(=O)NC1=O [PHENOBARBITAL] |  |  |  |  |  |  | 94 µmol/kg | 57 µmol/kg | 1 h | 297 µmol/kg |  |  |  |  |  | 
3 | CCC1(C)CC(=O)NC1=O (stereo not given) [ETHOSUXIMIDE] |  | 0.25 h | 1180 µmol/kg | 166 µmol/kg |  |  | > 3550 µmol/kg | 964 µmol/kg | 0.25 h | 2420 µmol/kg |  |  |  |  |  | 
4 | CCCC(CCC)C(=O)[O-].[Na+] [VALPROATE SODIUM] |  |  |  |  | 0.5 h | 948 µmol/kg |  |  |  |  | 890 µmol/kg | 2.1 | 1420 µmol/kg | 1420 µmol/kg | 1910 µmol/kg | 0.5 h
